The values that follow are results of earlier work, collected in paper PMC11071479 (bioRxiv, 2024).

The target in the data set is T1, MCT4 (Homo sapiens, UniProt O15427).
T1 sequence (O15427 2-465): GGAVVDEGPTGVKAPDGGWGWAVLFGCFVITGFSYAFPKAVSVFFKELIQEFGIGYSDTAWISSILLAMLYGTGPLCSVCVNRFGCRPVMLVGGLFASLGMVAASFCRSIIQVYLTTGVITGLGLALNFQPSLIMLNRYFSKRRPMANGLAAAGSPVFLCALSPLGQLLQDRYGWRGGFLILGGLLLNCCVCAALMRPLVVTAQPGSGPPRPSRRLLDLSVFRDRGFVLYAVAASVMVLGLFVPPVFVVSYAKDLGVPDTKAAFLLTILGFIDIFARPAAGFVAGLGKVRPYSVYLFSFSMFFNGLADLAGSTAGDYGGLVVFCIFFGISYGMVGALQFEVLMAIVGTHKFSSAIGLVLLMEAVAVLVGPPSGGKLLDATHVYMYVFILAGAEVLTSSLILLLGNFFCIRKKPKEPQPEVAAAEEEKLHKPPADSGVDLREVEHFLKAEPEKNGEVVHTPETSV
Description: MCT4 inhibition IC50 stated without citation. It counts as cell-based.

Turning to VB253, the IC50 (usually the concentration that inhibits the measured activity by half) is around 2 nM.
